Reference: article PMC3222737 (Biochemistry, 2011)
“And” between values parts separate entries of the source, which are not always exact repeats. Identical values can stand only once. Like-named read-outs stand apart in the source and are kept apart here.

Experiments:
MTAP [1] = molecular target: T1, MTAP (Homo sapiens, UniProt Q13126); assay: Isothermal titration calorimetry of ligand binding to human MTAP; details: for ΔG: calculated from Ki; for −TΔS: from ΔG=ΔH−TΔS
T1 sequence (Q13126 1-283): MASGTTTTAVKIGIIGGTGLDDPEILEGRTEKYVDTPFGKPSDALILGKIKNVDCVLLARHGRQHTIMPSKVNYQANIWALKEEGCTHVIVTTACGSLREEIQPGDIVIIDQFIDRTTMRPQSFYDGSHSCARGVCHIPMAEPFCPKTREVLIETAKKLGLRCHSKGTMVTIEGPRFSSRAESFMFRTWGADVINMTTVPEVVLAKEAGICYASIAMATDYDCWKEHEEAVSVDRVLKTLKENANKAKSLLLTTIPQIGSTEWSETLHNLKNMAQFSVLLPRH

MTAP [2] = molecular target: T1, MTAP; details: cited from earlier work; for Ki: human MTAP
FaDu tumors = details: mouse model; cited from earlier work
FaDu = FaDu cells; cited from earlier work
MTAP [3] = molecular target: T1, MTAP; assay: Analytical ultracentrifugation sedimentation velocity of MTAP complexes; details: for S(20,w) (normalized): MTAP 134 μM + inhibitor 400 μM, normalized for mass of bound ligands; for S(20,w) relative change: versus apo MTAP
[4] = test system: human lung cancer cell lines; details: mouse xenografts; cited from earlier work
Cal27 = Cal27 cells; cited from earlier work
[5] = in vivo; cited from earlier work
[6] = second generation inhibitors, single set of identical sites
[7] = second generation inhibitors, identical sites
[8] = first generation inhibitors, major binding sites (first two sites)
[9] = first generation inhibitors, major binding sites
[10] = first generation inhibitors, third site

S(20,w) (normalized) (MTAP [3])	S(20,w) relative change (MTAP [3])	ΔH (MTAP [1]; [7]) [kcal/mol]	ΔG (MTAP [1]; [7])	−TΔS (MTAP [1]; [7])	n (number of sites) (MTAP [1]; [6])	SMILES	Kd (MTAP [2]; [6]) [nM]	Kd (MTAP [2]; [8]) [nM]	n (number of sites) (MTAP [1]; [9])	ΔH (MTAP [1]; [9])	ΔG (MTAP [1]; [9])	−TΔS (MTAP [1]; [9])	n (number of sites) (MTAP [1]; [10])	ΔH (MTAP [1]; [10]) [kcal/mol]	ΔG (MTAP [1]; [10]) [kcal/mol]	−TΔS (MTAP [1]; [10]) [kcal/mol]	also measured
–	–	–	–	–	–	Nc1ncnc2[nH]cnc12 [Adenine, reference compound]	–	–	–	–	–	–	–	–	–	–	Kd (MTAP [1]; Kd, adenine, 1st site, three sequential binding sites model, derived from ITC data fitting): 3000 ± 1000 nM; ΔH (MTAP [1]; adenine, 1st site): -0.003 ± 0.2 kcal/mol; n (number of sites) (MTAP [1]; adenine, 1st site, sequential model): 1; ΔG (MTAP [1]; adenine, 1st site): -7.6 ± 0.2 kcal/mol; −TΔS (MTAP [1]; adenine, 1st site): -7.6 ± 0.3 kcal/mol; ΔH (MTAP [1]; adenine, 2nd site): 2.4 ± 0.2 kcal/mol; n (number of sites) (MTAP [1]; adenine, 2nd site, sequential model): 1; ΔG (MTAP [1]; adenine, 2nd site): -7.7 ± 0.2 kcal/mol; −TΔS (MTAP [1]; adenine, 2nd site): -10.1 ± 0.3 kcal/mol; ΔH (MTAP [1]; adenine, 3rd site): -2.6 ± 0.8 kcal/mol; n (number of sites) (MTAP [1]; adenine, 3rd site, sequential model): 1; ΔG (MTAP [1]; adenine, 3rd site): -5.6 ± 0.5 kcal/mol; −TΔS (MTAP [1]; adenine, 3rd site): -3.0 ± 0.9 kcal/mol; Entropy (−TΔS) share of the binding energy (MTAP [1]; adenine, third site): 54%
5.904 ± 0.016	0.79 ± 0.05%	1.5 ± 0.1	-13.7 kcal/mol and -13.7 ± 0.1 kcal/mol	-15.2 kcal/mol and -15.2 ± 0.1 kcal/mol	3	CSC[C@H]1CN(Cc2c[nH]c3c(N)ncnc23)C[C@@H]1O [MT-DADMe-ImmA]	0.09 ± 0.01	–	–	–	–	–	–	–	–	–	Ki (MTAP [2]; read-out: Ki (dissociation constant by inhibition kinetics)): 0.09 nM; tumor growth (FaDu tumors): prevents the growth of FaDu tumors; apoptosis (FaDu): induces apoptosis; tumor growth and metastases [4]: inhibits the tumor growth and metastases; apoptosis (Cal27): induces apoptosis; systemic toxicity [5]: low systemic toxicity
–	–	–	–	–	–	CSCC1NC(c2c[nH]c3c(N)ncnc23)[C@@H](O)[C@H]1O (some centres unmarked) [MT-ImmA]	–	1 ± 0.1	2.42 ± 0.04	0.2 kcal/mol and 0.24 ± 0.04 kcal/mol	-12.3 kcal/mol and -12.3 ± 0.1 kcal/mol	-12.5 kcal/mol and -12.5 ± 0.1 kcal/mol	0.58 ± 0.09	2.7 ± 0.4	-8.4 ± 0.3	-11.1 ± 0.5	Ki (MTAP [2]): 1 nM
–	–	–	–	–	–	CCCSC[C@H]1N[C@@H](c2c[nH]c3c(N)ncnc23)[C@H](O)[C@@H]1O [nPrT-ImmA]	–	0.214 ± 0.01	2.13 ± 0.04	0.2 kcal/mol and 0.24 ± 0.03 kcal/mol	-13.2 kcal/mol and -13.2 ± 0.03 kcal/mol	-13.4 kcal/mol and -13.4 ± 0.1 kcal/mol	0.9 ± 0.1	1.1 ± 0.2	-8.2 ± 0.4	-9.3 ± 0.4	–
6.012 ± 0.067	2.63% and 2.63 ± 0.12%	2.6 ± 0.1	-15.0 kcal/mol and -15.0 ± 0.3 kcal/mol	-17.6 kcal/mol and -17.6 ± 0.3 kcal/mol	3	Nc1ncnc2c(CN3CC(CSc4ccc(Cl)cc4)[C@H](O)C3)c[nH]c12 (some centres unmarked) [p-Cl-PhT-DADMe-ImmA]	0.01 ± 0.005	–	–	–	–	–	–	–	–	–	–
